For data set [1], the system named is pentagastrin-stimulated acid secretion of the perfused rat stomach. Kind of data set: Secretion-inhibiting action on the perfused rat stomach (pentagastrin-stimulated acid secretion). The conditions noted are these: anesthetized CD rat, dose 3.0 μmol/kg i.d. (intraduodenal). The format is in vivo. The text has this: Testing of the Secretion-Inhibiting Action on the Perfused Rat Stomach
In Table A which follows, the influence of the compounds of the formula 1 according to the invention on the pentagastrin-stimulated acid secretion of the perfused rat stomach after intraduodenal administration in vivo is shown.
The abdomen of anesthetized rats (CD rat, female, 200-250 g; 1.5 g/kg i.m. urethane) was opened after tracheotomy by a median upper abdominal incision and a PVC catheter was fixed transorally in the esophagus and another via the pylorus such that the ends of the tubes just projected into the gastric lumen. The catheter leading from the pylorus led outward into the right abdominal wall through a side opening.
After thorough rinsing (about 50-100 ml), warm (37° C.) physiological NaCl solution was continuously passed through the stomach (0.5 ml/min, pH 6.8-6.9; Braun-Unita I). The pH (pH meter 632, glass electrode EA 147; φ=5 mm, Metrohm) and, by titration with a freshly prepared 0.01N NaOH solution to pH 7 (Dosimat 665 Metrohm), the secreted HCl were determined in the effluent in each case collected at an interval of 15 minutes.
The gastric secretion was stimulated by continuous infusion of […] (=1.65 ml/h) of i.v. pentagastrin (left femoral vein) about 30 min after the end of the operation (i.e. after determination of 2 preliminary fractions). […]

The source of these data is patent publication US20080113962A1, “Condensed Tricyclic Benzimidazoles For the Treatment of Gastrointestinal Disorders” (Aitana Pharma AG, priority 2004, published 2008).

`COCCOC1CC(c2ccccc2)Oc2c1ccc1c2nc(C)n1C` (stereo not shown) [Example 2, 6-(2-Methoxy-ethoxy)-2,3-dimethyl-8-phenyl-3,6,7,8-tetrahydro-chromeno[7,8-d]imidazole] registered a melting point of 148 to 149 °C. Besides, the “Inhibition of acid secretion” value in data set [1] is given as more than 50%. For `CCOC1CC(c2ccccc2)Oc2c1ccc1c2nc(C)n1C` (stereo not shown) [Example 3, 6-(2-Ethoxy)-2,3-dimethyl-8-phenyl-3,6,7,8-tetrahydro-chromeno[7,8-d]imidazole], the melting point fell in the range of 177 to 178 °C. Same read-out and setting: for `Cc1nc2c3c(ccc2n1C)[C@H](O)C[C@H](c1ccccc1)O3` (relative stereo) [Example 1, cis-2,3-Dimethyl-8-phenyl-3,6,7,8-tetrahydro-chromeno[7,8-d]imidazol-6-ol] the value was 228 to 229 °C.
